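48-hour exposure; five concentrations; linearly interpolated endpoints. GI50: concentration for 50% inhibition of growth. TGI: concentration producing complete growth inhibition.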
What was measured:
Test in all cases: NCI anticancer screen, dose series, 48 h
OVCAR-8 ovarian = system: OVCAR-8 ovarian
UACC-62 melanoma = system: UACC-62 melanoma
NCI-H23 lung = system: NCI-H23 lung
SK-OV-3 ovarian = system: SK-OV-3 ovarian
NCI-H522 lung = system: NCI-H522 lung
LOX IMVI melanoma = system: LOX IMVI melanoma
SNB-19 CNS = system: SNB-19 CNS
SN12C renal = system: SN12C renal
MCF7 breast = system: MCF7 breast
DU-145 prostate = system: DU-145 prostate

Compound | TGI (OVCAR-8 ovarian) | TGI (UACC-62 melanoma) | TGI (NCI-H23 lung) | TGI (SK-OV-3 ovarian) [µM] | TGI (NCI-H522 lung) | TGI (LOX IMVI melanoma) | TGI (SNB-19 CNS) | TGI (SN12C renal) | GI50 (MCF7 breast) [µM] | TGI (MCF7 breast) [µM] | GI50 (OVCAR-8 ovarian) | GI50 (UACC-62 melanoma) | GI50 (NCI-H23 lung) | GI50 (SK-OV-3 ovarian) [µM] | GI50 (NCI-H522 lung) | GI50 (SNB-19 CNS) | GI50 (DU-145 prostate) | TGI (DU-145 prostate) | GI50 (SN12C renal) | GI50 (LOX IMVI melanoma)
C#CCC(N)(CO)C(=O)O (centres undefined) | > 100 µM | > 100 µM | > 100 µM | > 100 | > 100 µM | > 100 µM | > 100 µM |  |  |  |  |  |  |  |  |  |  |  |  | 
C=CCC1[C@@H](C(C)(C)C(C(C)=O)C(=O)C(=O)OC)OC(C(C)(C)C)N1C(=O)OC (some centres undefined) | > 100 µM | > 100 µM | > 100 µM | > 100 | > 100 µM |  | > 100 µM | > 100 µM |  |  |  |  |  |  |  |  |  |  |  | 
Cn1cc(-c2csc(-c3cn(C)c4ccccc34)n2)c2cnccc21 | 6.7 µM | 3.25 µM | 3.44 µM | 6.33 | 3.84 µM |  | 3.28 µM | 3.1 µM | 0.324 | 1.66 | 2.68 µM | 1.72 µM | 1.64 µM | 2.52 | 2 µM | 1.76 µM | 2.13 µM | 4.41 µM | 1.66 µM | 
COC1OC(C)C(OCc2ccccc2)C(OS(=O)(=O)c2ccc(C)cc2)C1OS(=O)(=O)c1ccc(C)cc1 (centres undefined) | > 100 µM |  | > 100 µM | > 100 | > 100 µM |  | > 100 µM | > 100 µM |  |  |  |  |  |  |  |  |  |  |  | 
CCOC(=O)C(=O)Nc1ccccc1C(F)(F)F | > 100 µM | > 100 µM | > 100 µM | > 100 |  | > 100 µM | > 100 µM | > 100 µM |  |  |  |  |  |  |  |  |  |  |  | 
CNC(SC)=C1C(=O)OC(C)(C)OC1=O | > 100 µM | > 100 µM | > 100 µM | > 100 | > 100 µM | > 100 µM | > 100 µM | > 100 µM |  |  |  |  |  |  |  |  |  |  |  | 
OC(CN1CC1)C(O)CN1CC1 (centres undefined) | > 50 µg/mL | > 50 µg/mL | > 50 µg/mL |  | > 50 µg/mL | > 50 µg/mL | > 50 µg/mL | > 50 µg/mL |  |  | > 50 µg/mL | > 50 µg/mL | > 50 µg/mL |  | > 50 µg/mL | > 50 µg/mL | > 50 µg/mL | > 50 µg/mL | > 50 µg/mL | > 50 µg/mL
CSc1c(C)c(C)nn1-c1ccccc1 | > 100 µM | > 100 µM | > 100 µM | > 100 | > 100 µM | > 100 µM | > 100 µM | > 100 µM |  |  |  |  |  |  |  |  |  |  |  | 
Cc1nnc(N/N=C(/C(=O)C(C#N)c2ccccc2)C(C#N)c2ccccc2)n1N (centres undefined) | 15.2 µM | > 62.6 µM | 17.8 µM | > 100 | 56.1 µM | 5.65 µM | > 100 µM | 16.6 µM |  |  |  |  |  |  |  |  |  |  |  | 
COc1c(Br)cc(Br)c(OC)c1-c1[nH]c(Br)c(Br)c1Br | 25 µM | 22.4 µM | 13.8 µM | 28.1 | 7.25 µM | 31.6 µM | > 100 µM | 21.6 µM |  |  |  |  |  |  |  |  |  |  |  | 
Cn1c([N+](=O)[O-])cnc1/C=C1\Oc2cc(Cl)ccc2C1=O | > 100 µM |  | 4.47 µM | > 22.8 | 2.36 µM | 0.553 µM | 6.21 µM | 6.65 µM | 0.712 | 13.3 | 0.401 µM |  | 0.766 µM | 1.94 | 0.679 µM | 1.64 µM | 0.413 µM | 4.51 µM | 0.713 µM | 0.2 µM
NC(N)=NS(=O)(=O)c1ccc(NC(=O)c2cccc3c(Nc4ccc(S(N)(=O)=O)cc4)c4ccccc4nc23)cc1 | > 100 µM | > 100 µM | > 100 µM | > 100 | > 100 µM | > 100 µM | > 100 µM | > 100 µM |  |  |  |  |  |  |  |  |  |  |  | 
O=c1c2c3c(sc2n2c(-c4cc(-c5ccccc5)nn4-c4ccccc4)nnc2n1Cc1ccccc1)CCCC3 |  | > 100 µM | > 100 µM | > 100 |  | > 100 µM | > 100 µM | > 100 µM | > 100 | > 100 |  | > 100 µM | > 100 µM | > 100 |  | > 100 µM | > 100 µM | > 100 µM | > 100 µM | > 100 µM
COc1ccc(-c2nnc(N3CCN(C(=O)CN4CCN(c5ccc(OC)cc5)CC4)CC3)nc2-c2ccc(OC)cc2)cc1 |  | 53.1 µM | 33.4 µM | 45 | 9.25 µM |  | 46.4 µM | 15.5 µM | 1.76 | 3.56 |  | 12.1 µM | 9.73 µM | 20.8 | 3.32 µM | 20.7 µM | 12.2 µM | 26.5 µM | 3.2 µM | 
Cl[Si]1(Cl)Oc2ccccc2O[Si](Cl)(Cl)Oc2ccccc2O1 | > 100 µM | 20.9 µM | 84.6 µM | > 100 | 5.4 µM | 36.5 µM | > 100 µM | > 100 µM |  |  |  |  |  |  |  |  |  |  |  | 
O=C/C(=C(/Cl)c1ccc(O)cc1)c1ccccc1 | > 92.4 µM | 22 µM | 55.1 µM | 85.8 | 26.1 µM | 46.9 µM | > 100 µM | > 61.3 µM |  |  |  |  |  |  |  |  |  | > 100 µM |  | 
O=C1c2cccnc2-c2nc(-c3ccncc3)cc3c2c1nc1ccccc13 | 24 µM |  | 28 µM | > 100 |  | 43.6 µM | 47.4 µM | 47.5 µM | 11.4 | 23.5 | 10.5 µM |  | 12.5 µM | > 100 |  | 19.3 µM | 20.6 µM | 42.7 µM | 20 µM | 16.1 µM
CCOC(=O)c1ccc(N[C@@H]2c3cc4c(cc3C(C3=CC(=O)C(=O)C(OC)=C3)[C@H]3C(=O)OCC32)OCO4)cc1 (some centres undefined) | 15.9 µM | 7.69 µM | 4.21 µM | 6.77 | 18.8 µM | 11.4 µM | 42 µM | > 21.1 µM |  |  |  |  |  |  |  |  |  |  |  | 
COC(=O)/C(C#N)=C1\CCC(C(=O)OC)N1C (centres undefined) | > 100 µM | > 100 µM | > 100 µM | > 100 | > 100 µM |  | > 100 µM | > 100 µM |  |  |  |  |  |  |  |  |  |  |  | 

Reference: PubChem BioAssay (NCI)
